Results on one compound are retold here after publication PMC11522691, “Structure of the turnover-ready state of an ancestral respiratory complex I” (Nature Communications, 2024).

Molecules are shown by their SMILES.

The target in the assay is T1, P. denitrificans complex I (Pd-CI, Pd-CI-ND), ubiquinone-binding site (Paracoccus denitrificans, UniProt A1B487+A1B495+A1B497).
T1 construct: gene nuoH; native 18-subunit complex from P. denitrificans membranes, His6 tag on Nqo5 (NDUFS3), DDM-purified, reconstituted in MSP2N2 phospholipid nanodiscs; NDUFS2-Arg65 dimethylated; ND3 N-formylMet; with NADH-quinone oxidoreductase subunit 1 (subunit F); NADH-quinone oxidoreductase subunit 2 (subunit E); NADH-quinone oxidoreductase subunit 3 (subunit G); NADH-quinone oxidoreductase subunit 5 (subunit C); NADH-quinone oxidoreductase subunit 7 (subunit A); NADH-quinone oxidoreductase subunit 9 (subunit I); NADH-quinone oxidoreductase subunit 10 (subunit J); NADH-quinone oxidoreductase subunit 11 (subunit K); NADH-quinone oxidoreductase subunit 12 (subunit L); NADH-quinone oxidoreductase subunit 13 (subunit M); NADH-quinone oxidoreductase subunit 14 (subunit N); NADH dehydrogenase [ubiquinone] iron-sulfur protein 4 homologue; NADH dehydrogenase [ubiquinone] iron-sulfur protein 6 homologue; NADH dehydrogenase [ubiquinone]; 1 alpha subcomplex subunit 12 homologue; Protein-L-isoaspartate O-methyltransferase
The experiment in a line: cryo-EM structure of the complex, […] Å. The following applies: closed resting state, oxidised; headgroup partially inserted near ND1-Arg38, Trp41, Met244, Lys295 and NDUFS7-Arg77; nanodiscs with added Q10.

T1 sequence (A1B497 whole entry): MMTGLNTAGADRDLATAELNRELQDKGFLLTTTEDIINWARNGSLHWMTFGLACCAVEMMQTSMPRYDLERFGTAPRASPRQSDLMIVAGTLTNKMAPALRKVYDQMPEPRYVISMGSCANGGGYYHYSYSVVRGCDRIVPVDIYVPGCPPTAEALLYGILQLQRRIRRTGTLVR
T1 sequence (A1B495 whole entry): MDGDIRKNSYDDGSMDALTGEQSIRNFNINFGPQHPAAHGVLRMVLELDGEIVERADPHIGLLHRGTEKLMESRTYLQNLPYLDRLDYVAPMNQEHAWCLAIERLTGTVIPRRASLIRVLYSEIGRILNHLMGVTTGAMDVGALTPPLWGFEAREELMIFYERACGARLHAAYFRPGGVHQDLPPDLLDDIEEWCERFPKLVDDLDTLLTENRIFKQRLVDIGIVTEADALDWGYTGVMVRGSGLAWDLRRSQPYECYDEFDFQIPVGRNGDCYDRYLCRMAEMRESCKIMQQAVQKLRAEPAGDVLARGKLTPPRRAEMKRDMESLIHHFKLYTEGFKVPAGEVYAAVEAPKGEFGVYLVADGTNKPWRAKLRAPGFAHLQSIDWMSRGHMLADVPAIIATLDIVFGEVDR
T1 sequence (A1B487 whole entry): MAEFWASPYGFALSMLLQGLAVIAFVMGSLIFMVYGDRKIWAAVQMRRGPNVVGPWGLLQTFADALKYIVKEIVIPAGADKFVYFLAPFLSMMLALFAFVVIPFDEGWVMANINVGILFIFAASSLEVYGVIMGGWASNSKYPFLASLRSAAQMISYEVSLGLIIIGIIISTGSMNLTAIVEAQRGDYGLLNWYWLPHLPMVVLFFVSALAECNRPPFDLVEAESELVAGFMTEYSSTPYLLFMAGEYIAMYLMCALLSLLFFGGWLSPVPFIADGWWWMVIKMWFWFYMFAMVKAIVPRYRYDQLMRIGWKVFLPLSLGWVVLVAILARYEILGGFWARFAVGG

For `COC1=C(OC)C(=O)C(C/C=C(\C)CC/C=C(\C)CC/C=C(\C)CC/C=C(\C)CC/C=C(\C)CC/C=C(\C)CC/C=C(\C)CC/C=C(\C)CC/C=C(\C)CCC=C(C)C)=C(C)C1=O` [ubiquinone-10], the “cryo-EM structure of the complex, 2.3 Å” value is “Density in the central polar region of the channel has been assigned to a partially inserted ubiquinone-10”.
